These results are taken from BindingDB's records for doi:10.1080/14756360701546595 (University of Zimbabwe, 2008).

The target in the assay is T1, Glutathione S-transferase E2 (Anopheles gambiae, UniProt Q9GPL8).
T1 sequence (Q9GPL8 whole entry): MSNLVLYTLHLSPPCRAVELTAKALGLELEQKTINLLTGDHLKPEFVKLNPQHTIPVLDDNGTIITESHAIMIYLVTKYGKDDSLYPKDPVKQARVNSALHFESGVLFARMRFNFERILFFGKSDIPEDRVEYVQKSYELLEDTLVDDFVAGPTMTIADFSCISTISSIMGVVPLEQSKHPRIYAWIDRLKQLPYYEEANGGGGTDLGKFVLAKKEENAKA
The assay is described as follows: GST Inhibition Assay. To be noted: pH 6.5; 30 °C. From the text:
A range of natural product were screened for inhibition of AgGSTE2. GST activity was monitored by measuring absorbance at 340 nm with time, using a SpectraMax 340 microplate spectrophotometer equipped with a kinetics mode from Molecular Devices, Sunnyvale, California, USA.
In the case of `CC(C)=CCCC1(C)C(CC=C(C)C)CC2(CC=C(C)C)C(=O)C(C(=O)c3ccc(O)c(O)c3)C(=O)C1(CC=C(C)C)C2=O` (stereo not given) [GGI], it took 4.8 µM to reach half-maximal inhibition (IC50). As to `O=Cc1occ2c(O)c3c(O)ccc(O)c3c(O)c12` [MR-13/4], the IC50 turned out to be 4.3 µM. Next, `COc1cc(O)c(-c2c(C)cc(O)c3c2Cc2cccc(O)c2C3=O)c(O)c1C(C)=O` [Name not given]: 3.5 µM; `C=Cc1c(OC=O)cc(O)c2c1OC(c1ccc(O)c(O)c1)C(O)C2` (stereo not given) [TRAL-1]: 1.5 µM. In turn, `C=C(CC)C(=O)c1ccc(OCC(=O)O)c(Cl)c1Cl` [[2,3-dichloro-4-(2-methylidenebutanoyl)phenoxy]acetic acid] returned an IC50 of 1.4 µM.

Broadly, the IC50 is the concentration needed to halve the response being measured.
